Where “and” joins values, the source holds several entries; their conditions need not be identical. Identical values can stand only once. Entries after “also recorded” stand apart in the source; their conditions may differ.
What was measured:
NFAT = assay: NFAT-luciferase reporter assay in NRVMs; assay type: cell-based, rat; conditions: for effect on basal NFAT activity: inhibitor at its IC50, without PE; for NFAT reporter activity, fold vs. vehicle control: 24 hours
Protocol: NRVMs were transfected with 75 ng per well (in a 96-well plate) of NFAT-luciferase reporter plasmid acquired from AddGene (51941) (B. J. Wilkins et al., Calcineurin/NFAT coupling participates in pathological, but not physiological, cardiac hypertrophy, Circ. Res. 94 (2004) 110-118. doi:10.1161/01.RES.0000109415.17511.18, the entire disclosure of which is incorporated herein by this citation). 48 hours after transfection, cells were treated with 10 μM PE for 24 hours to induce NFAT reporter activity. To quantify luciferase reporter expression, cells were rinsed with sterile PBS and then lysed with 50 μL Cell Lysis Buffer (Promega) for 5 min at room temperature, followed by addition of 100 μL luciferase assay reagent (Promega); luminescence was read immediately on the BioTek Cytation 3 image reader. HuR inhibitors were previously identified by Wu et. al. (X. Wu et al., Identification and Validation of Novel Small Molecule Disruptors of HuR-mRNA Interaction, ACS Chem. Biol. (2015) 150317154550000-9. doi:10.1021/cb500851u. the entire disclosure of which is incorporated herein by this citation), and used here as described.

HuR-RNA binding = HuR-RNA binding (Homo sapiens, UniProt Q15717); assay: Plasmonic nanoparticle LSPR assay of HuR-RNA binding; conditions: gold nanoparticle arrays, target RNA SEQ ID NO 7, recombinant HuR protein
Protocol: As shown schematically in FIG. 9A-B, a pattern for either microfluidic channels or a spot plate is first made on the substrate using photolithography. Next, the hole mask procedure is carried out on top of the patterned photoresist to make the desired nanoparticle array. Briefly, this procedure involves spin coating a layer of poly(methylmethacrylate) (PMMA) followed by a layer of poly(diallyldimethylammonium chloride) (PDDA). Next, polystyrene spheres of a desired size are drop-coated onto the top of the polymer layers and a layer of 5 nm of gold is deposited over the whole assembly. After removal of the polystyrene spheres by tape-stripping, the masks are subjected to oxygen plasma etching to generate holes the same size as the polystyrene spheres. Metals are then deposited into these holes and in the last step, both the PMMA/PDDA polymer mask and the photoresist are removed using acetone, to create nanoparticle arrays in a desired pattern on the substrate. […] The PDMS layer was used to create the channels for the microfluidic devices and to prevent solution migration from spot to spot in the spot plates.
Next a target RNA strand containing a DNA hybridizing region, which binds via base pair matching with the ssDNA on the nanoparticle, and a hairpin loop containing a HuR target binding site. […] Last, the HuR protein is added and binds to its target site within the RNA hairpin loop. […]

[1] = test system: pressure overload (aortic constriction) mouse model of heart failure; assay: Aortic constriction (TAC) pressure overload mouse model of cardiac hypertrophy and heart failure; assay type: in vivo; conditions: TAC mice
Protocol: FIG. 7A-C. KH-3 reduces ventricular dilation and improves ejection fraction in a pressure overload (aortic constriction) mouse model of heart failure. Mice (N=10) were subjected to aortic constriction (TAC) to induce cardiac hypertrophy and heart failure. After week 4, they were randomized to receive either KH-3 (50 mg/kg 3×/week) or Vehicle (5 mice to each group). KH-3 is a small molecule inhibitor of HuR-mRNA interaction that is available from.
FIG. 8A-C. KH-3 reduces ventricular dilation and improves ejection fraction in a pressure overload (aortic constriction) mouse model of heart failure.

[2] = test system: neonatal rat ventricular myocytes (NRVMs); assay: Hypertrophic cell growth of NRVMs, cell area by WGA staining; assay type: cell-based; conditions: 10 μM PE for 24 hr, vs vehicle treated control cells
Source text: Neonatal rat ventricular myocytes (NRVMs) were isolated using collagenase digestion and adhesion differential from fibroblasts as described ([…]. Moore-Morris, S. Lange, Isolation and culture of neonatal mouse cardiomyocytes, J Vis Exp. (2013) e50154-e50154. doi:10.3791/50154, the entire disclosure of which is incorporated herein by this citation). Briefly, Sprague Dawley neonatal rats (1-2 days old) (Taconic) were decapitated and the hearts were isolated. Following removal of the atria, the ventricles were cut into small pieces and digested first in 0.05% trypsin/EDTA (Corning) overnight, then in collagenase II (Gibco) for 30 minutes. Cells were then spun at 100×g followed by a 40 minute pre-plating process on non-treated plates to allow the fibroblasts to adhere. The non-adherent NRVMs were then transferred to cell culture-treated dishes in MEM alpha media (Gibco) with 10% FBS. […] All slides were imaged with the BioTek Cytation 3 image reader and quantitative assessment of HuR translocation was measured as the ratio of cytoplasmic to nuclear fluorescent intensity (adjusted for mean background fluorescence and integrated area) using ImageJ.

ANF = ANF (hypertrophic marker gene) expression by qRT-PCR in NRVMs; assay type: cell-based, rat; conditions: vehicle+PE, 24 hr
Protocol: (§1) RNA was isolated using a Macherey-Nagel NucleoSpin RNA kit and cDNA was synthesized using a BioScript All-in-One cDNA Synthesis SuperMix (Biotool). Samples were run on Stratagene Mx3005P (Agilent Technologies) using SYBR Green qPCR Master Mix (Biotool) to assess levels of GAPDH, ANF (atrial natriuretic factor), and RCAN1 (Regulator of Calcineurin 1). Results were analyzed using the ΔΔCt method (K. J. Livak, T. D. Schmittgen, Analysis of relative gene expression data using real-time quantitative PCR and the 2(-Delta Delta C(T)) Method, Methods. 25 (2001) 402-408. doi:10.1006/meth.2001.1262, the entire disclosure of which is incorporated herein by this citation). Primers are as listed: […]

HuR = HuR nucleo-cytoplasmic translocation by immunostaining in NRVMs; assay type: cell-based, rat; conditions: for HuR cytoplasmic translocation, fluorescent intensity ratio: agonist alone (PE 10 μM or AngII 100 nM), within 15 minutes (printed 15 hr)
Source text: All antibodies were made up in 0.6% BSA in PBS. For wheat germ agglutinin (WGA) staining, a Texas Red-X conjugate was used per manufacturer's instructions (ThermoFisher). […]

RCAN1 = assay: Expression of the NFAT target gene RCAN1 by qRT-PCR in NRVMs; assay type: cell-based, rat; conditions: PE treated
Protocol: as §1

PKC = PKC substrate phosphorylation in NRVMs; assay type: cell-based, rat; conditions: data not shown
[3] = inhibitor at its IC50 simultaneously with PE
[4] = 50 mg/kg 3×/week from week 4, vs Vehicle

Sequence of HuR-RNA binding (Q15717 whole entry): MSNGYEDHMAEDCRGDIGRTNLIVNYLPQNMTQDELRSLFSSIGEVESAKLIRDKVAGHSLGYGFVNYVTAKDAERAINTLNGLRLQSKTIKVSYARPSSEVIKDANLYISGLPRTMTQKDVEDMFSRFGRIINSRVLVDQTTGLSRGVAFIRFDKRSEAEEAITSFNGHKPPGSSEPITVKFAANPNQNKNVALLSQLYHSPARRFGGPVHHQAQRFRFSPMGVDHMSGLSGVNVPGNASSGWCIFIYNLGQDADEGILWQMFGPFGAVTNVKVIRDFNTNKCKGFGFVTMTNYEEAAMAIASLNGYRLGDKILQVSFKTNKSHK

For `CCN(CC)C(=O)CC(c1cc(OC)c(OC)c(OC)c1)c1c(OC)cc(OC)c2c(-c3ccccc3)cc(=O)oc12` (centres unmarked) [CMLD-1], the “effect on basal NFAT activity” value (NFAT) was “no significant effect”, the “NFAT reporter activity, fold vs. vehicle control” value (NFAT; [3]) was 1.19±0.30 fold and the “leftward LSPR shift (disruption of HuR-RNA binding)” value (HuR-RNA binding) was 10 nm.
In the case of `COc1ccc(C(CC(=O)N2CCCC2)c2c(OC)cc(OC)c3c(-c4ccccc4)cc(=O)oc23)cc1` (centres unmarked) [CMLD-2], the “effect on basal NFAT activity” value (NFAT) is reported as “no significant effect” and the “NFAT reporter activity, fold vs. vehicle control” value (NFAT; [3]) is reported as 1.30±0.14 fold.
For `CC(C)(C)c1ccc(S(=O)(=O)Nc2ccc3sc(/C=C/C(=O)NO)cc3c2)cc1` [KH-3], the “cardiac hypertrophy as heart weight to body weight” value [1] was “strong trend toward a reduction in cardiac hypertrophy”, the “cardiac hypertrophy as heart weight to tibia length ratio” value [1] was “strong trend toward a reduction in cardiac hypertrophy” and the “left ventricle (LV) diameter” value [1, 4] was “blunts further increases”. For the same compound, the “left ventricle end diastolic volume (LV-EDV)” value [1, 4] was “preventing further increases”, the “left ventricle end systolic volume (LV-ESV)” value [1, 4] was “preventing further increases” and the “cardiac function as measured by ejection fraction” value ([1]; pressure overload-induced hypertrophy) was “strong trend toward improving cardiac function”.
`CNC[C@H](O)c1cccc(O)c1` [PE, phenylephrine] was tested, and the “fold increase in cell area/size” value [2] was 1.29±0.08 fold and 1.39±0.07 fold, the ANF expression fold-induction (ANF) was 5.4±1.4 fold-induction and the “HuR translocation, ratio of cytoplasmic to total cell fluorescent intensity” value (HuR; 24 hr PE, vehicle control 0.71±0.04) was 1.82±0.08. For the same compound, the “HuR cytoplasmic translocation, fluorescent intensity ratio” value (HuR; vehicle control 0.71±0.04) was 1.05±0.06, the RCAN1 expression fold-induction (RCAN1) was 4.43±0.77 fold-induction and the “NFAT reporter activity, fold vs. vehicle control” value (NFAT; PE alone 10 μM) was 5.02±0.98 fold.
In the case of `CCCCCCCCCCCCCC(=O)O[C@@H]1[C@@H](C)[C@@]2(O)[C@@H](C=C(CO)C[C@]3(O)C(=O)C(C)=C[C@@H]23)[C@@H]2C(C)(C)[C@]12OC(C)=O` [PMA], the “HuR translocation after direct PKC activation” value (HuR; 2 μM) is reported as “lack of HuR translocation”.
In the case of `C[S+]([O-])c1ccc(-c2nc(-c3ccncc3)c(-c3ccc(F)cc3)[nH]2)cc1` (centres unmarked) [SB203580], the “HuR translocation, fluorescent intensity ratio” value (HuR; p38 inhibitor (10 μM) + AngII) is reported as 0.76±0.07 and the “HuR translocation, fluorescent intensity ratio” value (HuR; p38 inhibitor (10 μM) + PE, PE alone 1.05±0.06) is reported as 0.68±0.08.
In the case of `COc1ccc2c(c[n+](C)c3c4cc5c(cc4ccc23)OCO5)c1OC` [chelerythrine], the “effect on PE/AngII-mediated HuR translocation” value (HuR; PKC inhibitor 10 μM) is reported as “had no effect on HuR translocation; also recorded: shows a trend to enhance HuR translocation” and the PKC substrate phosphorylation (PKC) is reported as “a reduction of PKC substrate phosphorylation”.
“angiotensin II [AngII, angiotensin receptor AT1 agonist]” was tested, and the “HuR cytoplasmic translocation, fluorescent intensity ratio” value (HuR; vehicle control 0.71±0.04) was 1.06±0.04.
